Measured values as given in US12083093B2, “Composition for preventing or treating cellular senescence-related diseases comprising salinomycin as effective component” (RESEARCH COOPERATION FOUNDATION OF YEUNGNAM UNIVERSITY, priority 2018, dated 2024).

Assays:
[1] = system: premature senescent human fibroblasts induced by doxorubicin (HDF); experiment: CCK-8 cell survival, doxorubicin-induced premature senescent human fibroblasts; assay type: cell-based; settings: 100 nM, 4 days; compared to DMSO-treated group; p<0.01; FIG. 1C
Protocol: (§1) Each cell was treated in a serum-free culture solution containing doxorubicin (0.5 μM) for 4 hours. After washing the cells with a serum-free culture solution, the cells were cultured for 4 days in a culture solution containing 10% FBS, and then cellular aging was confirmed by measuring the level of senescence by staining with senescence-associated beta galactosidase.
(§2) After each sample was dissolved in DMSO, young cells, replicative senescent cells and senescent cells in which premature aging was induced by treating with doxorubicin were treated with 100 nM salinomycin, 100 nM rapamycin, 100 nM ABT263. After incubation for 4 days in a 37° C., 5% CO2 incubator, the degree of cell survival was confirmed by CCK-8 analysis, the degree of cellular aging was confirmed by senescence-associated β-galactosidase (SAβG) staining, p53 and p16 protein expression analysis.
(§3) Young cells (1×10^3 cells/well) or senescent cells (2×10^3 cells/well) were dispensed into a 96-well plate, and cultured overnight in a 37° C., 5% CO2 incubator. Salinomycin, ABT263 and rapamycin were treated at each concentration, and then incubated for 4 days in a 37° C., 5% CO2 incubator. […] Then, the absorbance was measured at 450 nm using a Microplate reader.
(§4) The degree of cell survival was expressed as a relative value for the absorbance of the control group treated with only DMSO as 100%. […]

[2] = system: replicative senescent human fibroblasts (HDF); experiment: Western blot of p53 and p16, replicative senescent human fibroblasts; assay type: cell-based; settings: FIG. 2C
Protocol: After dispensing 2×10^5 cells in a 100 mm culture dish, they were cultured in a 37° C., 5% CO2 incubator. When the cells grew to 80-90% in the culture dish, the cells were removed by treatment with trypsin-EDTA, and the number of cells was measured, and the cell population doubling time (PDT) was measured.
By successively subculturing the cells in the same process as described above, replication aging was induced. PDT of young fibroblasts was 36 hours, PDT of replicative senescent fibroblasts was 12 days, PDT of young vascular endothelial cells was 24 hours, and PDT of replicative senescent vascular endothelial cells was 7 days.
After dispensing the cells into a 60 mm culture dish, the cells were cultured overnight in an incubator at 37° C. and 5% CO2. After treatment with salinomycin, ABT263 and rapamycin, it was incubated for 3 days in a 37° C., 5% CO2 incubator. […]
The lysed cells were transferred to a 1.5 ml tube, pipetted 3-4 times, and then left on ice for 20 minutes. After centrifugation at 12,000 rpm for 20 minutes to recover the supernatant, the protein concentration of the supernatant was quantified by BCA analysis. […]

[3] = system: premature senescent renal tubular cells (HK2) by doxorubicin; experiment: CCK-8 cell survival, doxorubicin-induced premature senescent HK2 cells; assay type: cell-based, human; settings: 100 nM, 4 days; compared to DMSO-treated group; FIG. 6A-6C
Protocol: as §1, §2, §3, §4

[4] = system: pulmonary fibrosis induced by bleomycin; assay type: in vivo, C57BL/6J mice; settings: compared to PBS group
Protocol: Animal experiments were conducted with the approval of the Animal Experimental Ethics Committee, Yeungnam University College of Medicine (YUMC-AEC2018-025). After anesthetizing by injecting 2.5% avertin (Avertin; 0.025 ml/g) into the abdominal cavity of 10-week-old C57BL/6J male mice, 2 mU/g of bleomycin was instilled into the bronchi and injected into the lungs.
From 5 days after bleomycin administration, 2.5 μl of 10 mM salinomycin was diluted in 100 μl phosphate buffer solution at intervals of 3 days and injected intraperitoneally 6 times (Sal group).
Three mice were used for each group, and lungs were excised by sacrifice 22 days after bleomycin injection and fixed in 10% formalin solution or stored frozen in liquid nitrogen.
The tissue fixed in 10% formalin solution was embedded with paraffin and cut into 4 μm to prepare a tissue sample. After removing paraffin from the tissue sample, hematoxylin-eosin staining, trichrome staining, and PAS staining were performed.
The degree of fibrosis was measured by analyzing the degree of collagen staining using the i-Solution™ software program (IMT Inc., Canada) after trichrome staining and the degree of cell senescence in tissue samples was investigated by staining lipofuscin with Sudan black B (Viegas M S, et al., European journal of histochemistry: EJH. 2007). The degree of peritoneal fibrosis was confirmed by measuring the submesothelial thickness of the peritoneal mesothelial cell layer using the NIH Image J program.
In addition, lung tissue samples were prepared, and hematoxylin-eosin staining and trichrome staining were performed to confirm the degree of damage to the lung tissue and the degree of lung fibrosis.

## CC[C@@H](C(=O)[C@@H](C)[C@@H](O)[C@H](C)[C@@H]1O[C@@H]([C@@H](CC)C(=O)O)CC[C@@H]1C)[C@H]1O[C@]2(C=C[C@@H](O)[C@]3(CC[C@@](C)([C@H]4CC[C@](O)(CC)[C@H](C)O4)O3)O2)[C@H](C)C[C@@H]1C [salinomycin]
[1]
  cell survival (CCK-8): decreased significantly
[2]
  expression of p16 protein (Western blot): reduced
  expression of p53 protein (Western blot): reduced
[3]
  survival (CCK-8): no change
[4]; hematoxylin-eosin staining, FIG. 8C, 8D
  degree of lung tissue damage: statistically significantly reduced
[4]; i.p. 6 times at 3-day intervals, FIG. 8B
  body weight: further increased
[4]; trichrome staining, FIG. 8C, 8D
  degree of lung fibrosis: statistically significantly reduced
